Source: the supplement of paper PMC11451515

System: P12-Ichikawa
Assay: cell viability relative to DMSO control; higher = less cytotoxic
Conditions: 48 h
Outline: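 Leukemia cells (NOMO1 or SEM, 500 cells/well; P12-Ichikawa, 1000 cells/well) were seeded in 5 μl in 1536-well plates after at least four passages of adaptation to each medium. They received library compounds in DMSO by pin dosing, 11 threefold points from 47 μM to 0.79 nM. Luminescence with CellTiter-Glo One was read after 48 h at 37°C. Viability is stated per plate relative to DMSO wells, with cell-free wells as background.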

[1] = HPLM + 10% dialyzed FBS, 0.000781 µM
[2] = HPLM + 10% dialyzed FBS, 0.00234 µM
[3] = HPLM + 10% dialyzed FBS, 0.00702 µM
[4] = HPLM + 10% dialyzed FBS, 0.0211 µM
[5] = HPLM + 10% dialyzed FBS, 0.0632 µM
[6] = HPLM + 10% dialyzed FBS, 0.19 µM
[7] = HPLM + 10% dialyzed FBS, 0.569 µM
[8] = HPLM + 10% dialyzed FBS, 1.71 µM
[9] = HPLM + 10% dialyzed FBS, 5.12 µM
[10] = HPLM + 10% dialyzed FBS, 15.4 µM
[11] = HPLM + 10% dialyzed FBS, 46.1 µM
[12] = RPMI 5 mM glucose + 10% FBS, 0.000781 µM
[13] = RPMI 5 mM glucose + 10% FBS, 0.00234 µM
[14] = RPMI 5 mM glucose + 10% FBS, 0.00702 µM
[15] = RPMI 5 mM glucose + 10% FBS, 0.0211 µM
[16] = RPMI 5 mM glucose + 10% FBS, 0.0632 µM
[17] = RPMI 5 mM glucose + 10% FBS, 0.19 µM
[18] = RPMI 5 mM glucose + 10% FBS, 0.569 µM
[19] = RPMI 5 mM glucose + 10% FBS, 1.71 µM
[20] = RPMI 5 mM glucose + 10% FBS, 5.12 µM
[21] = RPMI 5 mM glucose + 10% FBS, 15.4 µM
[22] = RPMI 5 mM glucose + 10% FBS, 46.1 µM
[23] = RPMI 5 mM glucose + 10% dialyzed FBS, 0.000781 µM
[24] = RPMI 5 mM glucose + 10% dialyzed FBS, 0.00234 µM
[25] = RPMI 5 mM glucose + 10% dialyzed FBS, 0.00702 µM
[26] = RPMI 5 mM glucose + 10% dialyzed FBS, 0.0211 µM
[27] = RPMI 5 mM glucose + 10% dialyzed FBS, 0.0632 µM
[28] = RPMI 5 mM glucose + 10% dialyzed FBS, 0.19 µM
[29] = RPMI 5 mM glucose + 10% dialyzed FBS, 0.569 µM
[30] = RPMI 5 mM glucose + 10% dialyzed FBS, 1.71 µM
[31] = RPMI 5 mM glucose + 10% dialyzed FBS, 5.12 µM
[32] = RPMI 5 mM glucose + 10% dialyzed FBS, 15.4 µM
[33] = RPMI 5 mM glucose + 10% dialyzed FBS, 46.1 µM

Structure (SMILES) | cell viability [1] [%] | cell viability [2] [%] | cell viability [3] [%] | cell viability [4] [%] | cell viability [5] [%] | cell viability [6] [%] | cell viability [7] [%] | cell viability [8] [%] | cell viability [9] [%] | cell viability [10] [%] | cell viability [11] [%] | cell viability [12] [%] | cell viability [13] [%] | cell viability [14] [%] | cell viability [15] [%] | cell viability [16] [%] | cell viability [17] [%] | cell viability [18] [%] | cell viability [19] [%] | cell viability [20] [%] | cell viability [21] [%] | cell viability [22] [%] | cell viability [23] [%] | cell viability [24] [%] | cell viability [25] [%] | cell viability [26] [%] | cell viability [27] [%] | cell viability [28] [%] | cell viability [29] [%] | cell viability [30] [%] | cell viability [31] [%] | cell viability [32] [%] | cell viability [33] [%]
CCCCN1CCC(CNC(=O)c2c3n(c4ccccc24)CCCO3)CC1 | 100 | 104 | 109 | 112 | 115 | 109 | 116 | 110 | 107 | 95 | 68.9 | 107 | 105 | 109 | 112 | 118 | 101 | 112 | 114 | 112 | 90.1 | 68 | 92.8 | 107 | 106 | 98.5 | 113 | 105 | 112 | 112 | 109 | 94.7 | 78.5
c1cc2c(cc1[C@H]1OC[C@H]3[C@@H]1CO[C@@H]3c1ccc3c(c1)OCO3)OCO2 | 122 | 120 | 118 | 124 | 122 | 129 | 133 | 122 | 119 | 128 | 122 |  |  |  |  |  |  |  |  |  |  |  |  |  |  |  |  |  |  |  |  |  | 
COc1cccc(N(C)C(=S)Oc2ccc3c(c2)CCCC3)n1 | 97.6 | 97.3 | 103 | 106 | 111 | 108 | 112 | 107 | 97.6 | 107 | 101 | 96.6 | 103 | 99.1 | 103 | 104 | 92.2 | 107 | 104 | 96.9 | 95.6 | 88.1 | 94.9 | 86.6 | 104 | 96.9 | 99.7 | 94.2 | 101 | 92.1 | 96.6 | 94.8 | 81.1
C/C1=C/C(=C(/CNC(=O)C2=CC(=CC3=C2C=N[N]3C4CCCC4)C5=CC=C(CN6CCOCC6)C=C5)C(=O)N1)C | 113 | 118 | 118 | 117 | 124 | 120 | 114 | 112 | 114 | 106 | 38.6 | 128 | 124 | 120 | 117 | 126 | 123 | 126 | 123 | 115 | 122 | 45.8 |  |  |  |  |  |  |  |  |  |  | 
COc1cc2c(cc1OC)CN(CCc1ccc(NC(=O)c3cccc4c(=O)c5cccc(OC)c5[nH]c34)cc1)CC2 | 101 | 105 | 107 | 118 | 111 | 112 | 123 | 21.1 | 11.5 | 5 | 3.03 | 96.9 | 101 | 102 | 111 | 109 | 112 | 113 | 119 | 25.2 | 5.14 | 2.82 | 104 | 109 | 112 | 111 | 113 | 121 | 110 | 103 | 20 | 6.37 | 2.85
Clc1ccc(C(c2ccc(Cl)cc2)[n+]2ccn(CC(OCc3ccc(Cl)cc3Cl)c3ccc(Cl)cc3Cl)c2)cc1 (centres undefined) | 115 | 112 | 109 | 104 | 113 | 117 | 110 | 98.1 | 102 | 70.6 | 47.1 | 129 | 113 | 115 | 110 | 115 | 115 | 113 | 100 | 105 | 70.2 | 21 |  |  |  |  |  |  |  |  |  |  | 
O=C(O)c1cccc(-c2noc(-c3ccccc3F)n2)c1 | 99.7 | 106 | 104 | 100 | 102 | 105 | 102 | 98.6 | 101 | 100 | 95.3 | 96.5 | 98.2 | 97.5 | 106 | 106 | 106 | 101 | 98.7 | 90.9 | 93 | 92.7 | 102 | 105 | 94.9 | 103 | 103 | 97.1 | 95.1 | 102 | 90.6 | 102 | 98.7
C[C@]12CC[C@H]3[C@@H](CC[C@@]45O[C@@H]4C(O)=C(C#N)C[C@]35C)[C@@H]1CC[C@@H]2O | 108 | 116 | 113 | 116 | 125 | 116 | 111 | 115 | 113 | 107 | 20.9 | 101 | 103 | 108 | 120 | 108 | 114 | 121 | 122 | 116 | 108 | 12.3 | 101 | 103 | 113 | 116 | 114 | 114 | 111 | 115 | 109 | 105 | 16.7
CC(C)[C@H]1C(=O)N[C@H](CO)Cc2c[nH]c3cccc(c23)N1C | 87.3 | 96 | 98.3 | 108 | 110 | 99.2 | 92.2 | 88.1 | 74.2 | 83.9 | 88.8 | 91.5 | 98.8 | 104 | 105 | 110 | 98.9 | 76.9 | 75.4 | 63.7 | 65.4 | 74.5 | 87 | 99.7 | 97.9 | 101 | 107 | 90.3 | 79.1 | 70.6 | 58 | 64.5 | 65.3
COc1cc(N2CCC(N3CCN(C)CC3)CC2)ccc1Nc1ncc(Cl)c(Nc2ccccc2[S+](=O)([O-])C(C)C)n1 | 106 | 101 | 129 | 140 | 142 | 136 | 144 | 104 | 23.6 | 12.2 | 31.5 | 83.4 | 87.1 | 138 | 149 | 159 | 151 | 147 | 104 | 33.7 | 37.4 | 40.3 | 99.3 | 88.2 | 146 | 161 | 177 | 171 | 161 | 150 | 53.3 | 58 | 65.5
Cc1nnc(C(C)C)n1[C@@H]1C[C@H]2CC[C@@H](C1)N2CC[C@H](NC(=O)C1CCC(F)(F)CC1)c1ccccc1 | 88.3 | 99.8 | 107 | 111 | 105 | 102 | 113 | 110 | 101 | 89.1 | 63.8 | 85 | 90.2 | 94.3 | 100 | 95.9 | 103 | 107 | 99.4 | 104 | 92 | 59.2 | 71.4 | 96 | 89.1 | 101 | 94.5 | 105 | 97.4 | 103 | 101 | 81.1 | 48.3
Nc1ncnc2nc(-c3ccc(N4CCOCC4)nc3)cc(-c3cccc(Br)c3)c12 | 116 | 128 | 117 | 122 | 117 | 117 | 115 | 119 | 111 | 108 | 113 |  |  |  |  |  |  |  |  |  |  |  | 114 | 121 | 112 | 121 | 118 | 121 | 129 | 115 | 115 | 108 | 112
O=C(Nc1ccccc1)Nc1ccc(-c2ccc(C(=O)[C@@H]3CCC[C@H]3C(=O)O)cc2)cc1 | 105 | 102 | 117 | 113 | 113 | 122 | 96.7 | 105 | 90.8 | 87 | 79 | 110 | 117 | 100 | 113 | 116 | 114 | 118 | 102 | 92.8 | 73 | 86.2 | 123 | 121 | 116 | 104 | 122 | 122 | 115 | 114 | 89.6 | 83.9 | 83.1
Cc1cccc(-c2[nH]c(C(C)(C)C)nc2-c2ccc3nccnc3c2)n1 | 120 | 124 | 124 | 126 | 125 | 120 | 118 | 110 | 112 | 112 | 48 | 122 | 122 | 115 | 116 | 124 | 121 | 108 | 119 | 106 | 106 | 81.4 |  |  |  |  |  |  |  |  |  |  | 
CCOc1ccccc1N/N=C1/C(=O)N(c2nc(-c3ccccc3)cs2)N=C1C | 111 | 114 | 114 | 115 | 114 | 108 | 104 | 101 | 103 | 86.4 | 67 | 115 | 108 | 108 | 121 | 116 | 120 | 112 | 106 | 114 | 98.9 | 97 | 113 | 118 | 110 | 116 | 113 | 108 | 109 | 105 | 106 | 94.6 | 94.6
Nc1nccc(-c2ccc3noc(-c4ccc(Cl)cc4)c3c2)n1 | 124 | 124 | 131 | 129 | 120 | 124 | 128 | 120 | 122 | 115 | 118 |  |  |  |  |  |  |  |  |  |  |  | 116 | 119 | 122 | 123 | 117 | 115 | 110 | 123 | 115 | 105 | 110
CC(C)[C@H](O)C(=O)N[C@@H](C)C(=O)N[C@@H]1C(=O)N(C)CCc2ccccc21 | 112 | 114 | 111 | 112 | 115 | 108 | 102 | 90.7 | 110 | 91.4 | 90.7 | 114 | 123 | 122 | 109 | 119 | 116 | 104 | 113 | 106 | 97.7 | 105 | 116 | 113 | 113 | 105 | 96.6 | 106 | 102 | 99.6 | 94.6 | 98.8 | 92.7
